{
  "source": "patent US8829014B2",
  "about": "“Thiazole and thiophene analogues, and their use in treating autoimmune diseases and cancers” (Board of Supervisors of Louisiana State University and …, priority 2006, dated 2014)",
  "key": {"carageenan-induced edema": {"system": "carageenan-induced edema", "assay": "Carrageenan-induced rat paw edema test (anti-inflammatory activity)", "format": "in vivo, Sprague-Dawley rats", "details": "for inhibition in vivo at 50 mg/kg: po, 3 h, carrageenan-induced rat paw edema, defined in Example 397, read-out: % Protection", "how_it_was_run": "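Edema was raised by sub-plantar injection of 1% carrageenan into the right hind paw, 1 h after dosing 18 h-fasted male/female Sprague-Dawley rats (150-250 g) with 50 mg/kg p.o. in 0.1% CMC. Swelling was measured by displacement 3 h later and expressed as % protection against saline control.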"}, "NF-κB": {"system": "NF-κB", "assay": "NF-κB inhibitor screen: basal NF-κB-dependent luciferase expression in HEK/NF-κB cell line", "format": "cell-based", "details": "for inhibition at 1 µM: determined as described in Example 398, read-out: NFkB inhibition @ 1 uM; for inhibition of NF-κB (summary statement): summary in the disclosure", "how_it_was_run": "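Basal NF-κB-driven luciferase (six-copy element, stable HEK293 line) was read with Brite-Glo. Compound was added in 0.3% DMSO 24 h post-plating, initially at 1.0 μM and then across 10–3300 nM in six steps, in triplicate wells. Signals were expressed relative to DMSO or to the lowest concentration tested.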"}, "AP-1": {"system": "AP-1", "assay": "AP-1 inhibitor screen: basal AP-1-dependent luciferase expression in HEK/AP-1 cell line", "format": "cell-based", "details": "for inhibition at 1 µM: AP1, determined as described in Example 398", "how_it_was_run": "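Compound effects on unstimulated reporter signal were tested: 1.0 μM compound (0.3% DMSO) for 48 hr on HEK cells bearing an AP-1 (TGACTAA ×3)-luciferase construct, seeded 24 hr earlier. Triplicate luminescence means were normalized to DMSO-only wells; dose-response experiments were repeated 2–4 times.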"}},
  "note": "Entries after “also recorded” stand apart in the source; their conditions may differ. Read-outs that look alike come from different tables or passages of the source.",
  "data": [
    {"compound": "COc1ccc(-n2c(-c3sc(Nc4ccc(Cl)cc4)nc3-c3ccccc3)nc3ccccc3c2=O)cc1", "note": "[Example 225, 2-[2-(4-Chloro-phenylamino)-4-phenyl-thiazol-5-yl]-3-(4-methoxyphenyl)-3H-quinazolin-4-one]", "values": [
      {"measurement": "inhibition in vivo at 50 mg/kg", "setting": "carageenan-induced edema", "value": 80, "unit": "%"},
      {"measurement": "inhibition at 1 µM", "setting": "NF-κB", "value": 47, "unit": "%"},
      {"measurement": "inhibition of NF-κB (summary statement)", "setting": "NF-κB", "value": "capable of inhibiting"},
      {"measurement": "inhibition at 1 µM", "setting": "AP-1", "value": 58, "unit": "%"}
    ]},
    {"compound": "CNc1nc(C)c(-c2nc3ccccc3c(=O)n2-c2ccc(Cl)cc2)s1", "note": "[Example 244, 2-(4-Methyl-2-methylamino-thiazol-5-yl)-3-(4-chloro-phenyl)-3H-quinazolin-4-one]", "values": [
      {"measurement": "inhibition in vivo at 50 mg/kg", "setting": "carageenan-induced edema; Rattus norvegicus", "value": 71, "unit": "%"},
      {"measurement": "inhibition at 1 µM", "setting": "NF-κB", "value": 93, "unit": "%"},
      {"measurement": "inhibition at 1 µM", "setting": "AP-1", "value": 82, "unit": "%"}
    ]},
    {"compound": "Bis-[2-(4-Chloro-phenylamino)-4-benzayl-thiazole-5-yl]-methanone [Example 134]", "values": [
      {"measurement": "% Protection P", "setting": "carageenan-induced edema; rat paw edema, 50 mg/kg, reading 3 hours after carrageenan, [(Control−Test)/Control]×100%", "value": 75.69, "unit": "%"},
      {"measurement": "basal NF-κB-dependent luciferase, six-point dose response", "setting": "NF-κB; 10 nM-3300 nM (FIG. 12), listed as Compound 35", "value": "substantial activity at submicromolar concentrations; also recorded: robust inhibition"},
      {"measurement": "inhibition of basal NF-κB-dependent luciferase expression", "setting": "NF-κB; 3.3 μM (FIG. 12)", "value": "about 50%"},
      {"measurement": "inhibition of NF-κB (summary statement)", "setting": "NF-κB", "value": "capable of inhibiting"},
      {"measurement": "basal AP-1-dependent luciferase, six-point dose response", "setting": "AP-1; 10 nM-3300 nM (FIG. 14)", "value": "substantial activity at submicromolar concentrations"}
    ]}
  ]
}
